# Measurements: patent US20080188543A1, “PHARMACEUTICAL COMPOSITIONS CONTAINING SUBSTITUTED INDOLE ACID DERIVATIVES AS INHIBITORS OF PLASMINOGEN ACTIVATOR INHIBITOR-1 (PAI-1)” (Wyeth, priority 2007, published 2008)
# Test: Solubility profile (free acid in HCl/NaOH solution, supernatants assayed by HPLC)
# Format: physicochemical
# Method: A solubility profile for [1-(4-tert-butylbenzyl)-5-(3-methylphenyl)-1H-indol-3-yl](oxo)acetic acid was generated using the free acid in HCl/NaOH solution (See FIG. 3). Solutions were centrifuged after 24 hours equilibration (2 hours for pH<4 to avoid degradation) and the supernatants were assayed by HPLC.
compound,measurement,setting,value
Cc1cccc(-c2ccc3c(c2)c(C(=O)C(=O)O)cn3Cc2ccc(C(C)(C)C)cc2)c1 [[1-(4-tert-Butylbenzyl)-5-(3-methylphenyl)-1H-indol-3-yl](oxo)acetic acid],pH-solubility profile,"above pH 4 up to pH 8, free acid in HCl/NaOH, 24 hours equilibration",solubility increases with increasing pH
same,pH-solubility profile,"above pH 8, precipitation of the sodium salt",solubility decreases
same,solubility,"pH<4, the stomach condition, 2 hours equilibration",poor solubility
same,aqueous solubility,upon ionization in aqueous media,approximately 24 uG/mL
